Test results as given in patent EP0330824A1, “Use of quinolizine and quinolizinone derivatives in the manufacture of medicaments for the treatment of cardiac arrhythmias” (MERRELL DOW PHARMACEUTICALS INC., priority 1988, dated 1989).
Where a name gives a salt, the structure may show the parent alone.

Columns and labels:
[1] = test system: action potential of isolated cardiac tissue; test: Action potential of isolated cardiac tissue (Purkinje fiber or papillary muscle); design: species or system dog or guinea pig; conditions: 10⁻⁸ to 10⁻⁵ moles/liter in tissue bath, stimulation at 1 Hz
Text: A gas mixture comprised of 95% O₂ and 5% CO₂ is bubbled through the solution while it is maintained within a pH range of from 7.3-7.4.
The heart of an anesthetized mongrel dog is surgically removed and the Purkinje fibers are dissected from either of the ventricles. Alternately, papillary muscles are removed from the right cardiac ventricle of a guinea pig. A Purkinje fiber or a papillary muscle is then placed in a tissue bath which is continuously perfused with modified Tyrode's solution.¹
The electrophysiology of the cardiac tissue is monitored by conventional glass microelectrodes. One microelectrode is inserted into a cell in the cardiac muscle fiber and a ground electrode is positioned in the tissue bath. A conventional oscilloscope is utilized to visualize the action potential waveforms of the cardiac cell. […]
At this point, representative control action potentials are recorded and analyzed by a computer.
After establishing a control action potential, the test compound is introduced into the Modified Tyrode's solution in a quantity such that the test compound is present within the tissue bath in a range of from 10⁻⁸ to 10⁻⁵ moles/liter. After the effect of the test compound has reached a steady state, the action potential is again recorded and analyzed in the manner described above.

[2] = test system: Von Bezold-Jarisch Reflex induced by 5-HT; test: Von Bezold-Jarisch Reflex induced by intravenous 5-HT; assay type: in vivo; conditions: rat
Text: The activity of these compounds against 5-HT can be assessed in vivo by measurement of the effect of the compound on the Von Bezold-Jarisch Reflex induced by 5-HT injected intravenously into the rat (see Paintal A.S., Physiol. Rev. 53, 159-227, 1973; J.R. Fozard, Naunyn-Schmiedeberg's Arch. Pharmacol., 326, 1984, 36-44). The transient cardiac slowing arises from an increased afferent vagus activity arising from stimulation by 5-HT of sensory afferent fibers in and around the heart.

SMILES | rate of maximal depolarization of the action potential [1] | suppression of the Von Bezold-Jarisch Reflex response ([2]; 0.01-0.1 mg/kg given intravenously) | suppression of the Von Bezold-Jarisch Reflex response ([2]; 0.25-1 mg/kg given orally)
O=C(OC1CC2CC3CC(C1)N2CC3=O)c1c[nH]c2ccccc12 (stereo not drawn) [endo-hexahydro-8-(3-indolylcarbonyloxy)-2,6-methano-2H-quinolizin-3(4H)-one] | capable of delaying the rate of maximal depolarization of the action potential | – | –
O=C(OC1CC2CC3CC(C1)N2CC3=O)c1c[nH]c2ccccc12 (stereo not drawn) [endo-hexahydro-8-(3-indolylcarbonyloxy)-2,6-methano-2H-quinolizin-3(4H)-one hydrochloride] | – | suppressed the response dose-dependently | suppressed the response dose-dependently
